Laboratory results taken from PubChem BioAssay AID1963825 (Molecular Pharmacology Branch, DTP, NCI, 2024).

Assay: Anticancer human tumor 997537-175-T-J1-PDC patient-derived colon adenocarcinoma cell line growth inhibition [POLQ]
Details: 997537-175-T-J1-PDC complex spheroid viability, combination with POLQ inhibitors; second compound 1 µM; first compound 0.316 µM; active compounds read low
How it was run: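 PDC + HUVEC + MSC complex spheroids; POLQ inhibitors ± partner drugs; top conc. at/near clinical Cmax, else 10 microM (SN-38 1 microM), half-log dilutions; 37 degrees C, 5% CO2.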
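Further: luminescence signal used as a surrogate for viable cells; spheroids exposed to drugs for seven days before readout.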

**Q.** For `CC1COCCN1c1cc(-c2ccnn2C)c2ccnc(-c3ccn[nH]3)c2n1` (stereo unspecified) + COC1C(OC(N)=O)C(O)C(Oc2ccc3c(O)c(NC(=O)c4ccc(O)c(CC=C(C)C)c4)c(=O)oc3c2C)OC1(C)C, which viability, T/C is on record?
**A.** 54.3%

**Q.** Which viability, T/C does the source give for `CC1COCCN1c1cc(C2(S(C)(=N)=O)CC2)nc(-c2ccnc3[nH]ccc23)n1` (stereo unspecified) + Nc1ccc(C#CCN(C(=O)Cc2ncc(C(F)(F)F)cc2C(F)(F)F)c2ccc(F)cc2)nn1 here?
**A.** 105%

**Q.** With `CCCS(=O)(=O)Nc1ccc(F)c(C(=O)c2c[nH]c3ncc(-c4ccc(Cl)cc4)cc23)c1F` + Cc1cccc(N(C)C(=O)C2C(O)CCN2c2nc(C)cc(C(F)(F)F)c2C#N)c1 as the compound, how does the viability, T/C read?
**A.** 85.9%

**Q.** Which viability, T/C does the source give for `CCc1cc2c(N3CCc4c(cc(Cn5ccnc5)cc4-c4cn(C)nc4C(F)(F)F)C3=O)ccnc2c(OC)n1` + Cc1cccc(N(C)C(=O)C2C(O)CCN2c2nc(C)cc(C(F)(F)F)c2C#N)c1 here?
**A.** 100%

Same assay, conditions: 997537-175-T-J1-PDC complex spheroid viability, combination with POLQ inhibitors; second compound 1 µM; first compound 1 µM; active compounds read low

**Q.** For `Nc1ccn(C2OC(CO)C(O)C2(F)F)c(=O)n1` (stereo unspecified) + Cc1cccc(N(C)C(=O)C2C(O)CCN2c2nc(C)cc(C(F)(F)F)c2C#N)c1, which viability, T/C is on record?
**A.** 68.4%

**Q.** For `CC1COCCN1c1cc(-c2ccnn2C)c2ccnc(-c3ccn[nH]3)c2n1` (stereo unspecified) + COC1C(OC(N)=O)C(O)C(Oc2ccc3c(O)c(NC(=O)c4ccc(O)c(CC=C(C)C)c4)c(=O)oc3c2C)OC1(C)C, which viability, T/C is on record?
**A.** 39%

**Q.** Which viability, T/C does the source give for `CC1COCCN1c1cc(C2(S(C)(=N)=O)CC2)nc(-c2ccnc3[nH]ccc23)n1` (stereo unspecified) + Nc1ccc(C#CCN(C(=O)Cc2ncc(C(F)(F)F)cc2C(F)(F)F)c2ccc(F)cc2)nn1 here?
**A.** 81%

**Q.** For `CCCS(=O)(=O)Nc1ccc(F)c(C(=O)c2c[nH]c3ncc(-c4ccc(Cl)cc4)cc23)c1F` + Cc1cccc(N(C)C(=O)C2C(O)CCN2c2nc(C)cc(C(F)(F)F)c2C#N)c1, which viability, T/C is on record?
**A.** 75.7%

**Q.** With `CCc1cc2c(N3CCc4c(cc(Cn5ccnc5)cc4-c4cn(C)nc4C(F)(F)F)C3=O)ccnc2c(OC)n1` + Cc1cccc(N(C)C(=O)C2C(O)CCN2c2nc(C)cc(C(F)(F)F)c2C#N)c1 as the compound, how does the viability, T/C read?
**A.** 83.3%

Same assay, conditions: 997537-175-T-J1-PDC complex spheroid viability, combination with POLQ inhibitors; second compound 1 µM; first compound 3.16 µM; active compounds read low

**Q.** With `Nc1ccn(C2OC(CO)C(O)C2(F)F)c(=O)n1` (stereo unspecified) + Cc1cccc(N(C)C(=O)C2C(O)CCN2c2nc(C)cc(C(F)(F)F)c2C#N)c1 as the compound, how does the viability, T/C read?
**A.** 66%

**Q.** With `CC1COCCN1c1cc(-c2ccnn2C)c2ccnc(-c3ccn[nH]3)c2n1` (stereo unspecified) + COC1C(OC(N)=O)C(O)C(Oc2ccc3c(O)c(NC(=O)c4ccc(O)c(CC=C(C)C)c4)c(=O)oc3c2C)OC1(C)C as the compound, how does the viability, T/C read?
**A.** 33.1%

**Q.** For `CC1COCCN1c1cc(C2(S(C)(=N)=O)CC2)nc(-c2ccnc3[nH]ccc23)n1` (stereo unspecified) + Nc1ccc(C#CCN(C(=O)Cc2ncc(C(F)(F)F)cc2C(F)(F)F)c2ccc(F)cc2)nn1, which viability, T/C is on record?
**A.** 63.9%

**Q.** Which viability, T/C does the source give for `CCCS(=O)(=O)Nc1ccc(F)c(C(=O)c2c[nH]c3ncc(-c4ccc(Cl)cc4)cc23)c1F` + Cc1cccc(N(C)C(=O)C2C(O)CCN2c2nc(C)cc(C(F)(F)F)c2C#N)c1 here?
**A.** 61.5%

**Q.** For `CCc1cc2c(N3CCc4c(cc(Cn5ccnc5)cc4-c4cn(C)nc4C(F)(F)F)C3=O)ccnc2c(OC)n1` + Cc1cccc(N(C)C(=O)C2C(O)CCN2c2nc(C)cc(C(F)(F)F)c2C#N)c1, which viability, T/C is on record?
**A.** 64.9%

Same assay, conditions: 997537-175-T-J1-PDC complex spheroid viability, combination with POLQ inhibitors; second compound 1 µM; first compound 10 µM; active compounds read low

**Q.** With `Nc1ccn(C2OC(CO)C(O)C2(F)F)c(=O)n1` (stereo unspecified) + Cc1cccc(N(C)C(=O)C2C(O)CCN2c2nc(C)cc(C(F)(F)F)c2C#N)c1 as the compound, how does the viability, T/C read?
**A.** 66.7%

**Q.** Which viability, T/C does the source give for `CC1COCCN1c1cc(-c2ccnn2C)c2ccnc(-c3ccn[nH]3)c2n1` (stereo unspecified) + COC1C(OC(N)=O)C(O)C(Oc2ccc3c(O)c(NC(=O)c4ccc(O)c(CC=C(C)C)c4)c(=O)oc3c2C)OC1(C)C here?
**A.** 56.1%

**Q.** With `CC1COCCN1c1cc(C2(S(C)(=N)=O)CC2)nc(-c2ccnc3[nH]ccc23)n1` (stereo unspecified) + Nc1ccc(C#CCN(C(=O)Cc2ncc(C(F)(F)F)cc2C(F)(F)F)c2ccc(F)cc2)nn1 as the compound, how does the viability, T/C read?
**A.** 52%

**Q.** For `CCCS(=O)(=O)Nc1ccc(F)c(C(=O)c2c[nH]c3ncc(-c4ccc(Cl)cc4)cc23)c1F` + Cc1cccc(N(C)C(=O)C2C(O)CCN2c2nc(C)cc(C(F)(F)F)c2C#N)c1, which viability, T/C is on record?
**A.** 29.5%

**Q.** With `CCc1cc2c(N3CCc4c(cc(Cn5ccnc5)cc4-c4cn(C)nc4C(F)(F)F)C3=O)ccnc2c(OC)n1` + Cc1cccc(N(C)C(=O)C2C(O)CCN2c2nc(C)cc(C(F)(F)F)c2C#N)c1 as the compound, how does the viability, T/C read?
**A.** 66.5%

Same assay, conditions: 997537-175-T-J1-PDC complex spheroid viability, combination with POLQ inhibitors; second compound 3.16 µM; first compound 0.0316 µM; active compounds read low

**Q.** With `Nc1ccn(C2OC(CO)C(O)C2(F)F)c(=O)n1` (stereo unspecified) + Cc1cccc(N(C)C(=O)C2C(O)CCN2c2nc(C)cc(C(F)(F)F)c2C#N)c1 as the compound, how does the viability, T/C read?
**A.** 95.3%

**Q.** With `CC1COCCN1c1cc(-c2ccnn2C)c2ccnc(-c3ccn[nH]3)c2n1` (stereo unspecified) + COC1C(OC(N)=O)C(O)C(Oc2ccc3c(O)c(NC(=O)c4ccc(O)c(CC=C(C)C)c4)c(=O)oc3c2C)OC1(C)C as the compound, how does the viability, T/C read?
**A.** 99.5%

**Q.** With `CC1COCCN1c1cc(C2(S(C)(=N)=O)CC2)nc(-c2ccnc3[nH]ccc23)n1` (stereo unspecified) + Nc1ccc(C#CCN(C(=O)Cc2ncc(C(F)(F)F)cc2C(F)(F)F)c2ccc(F)cc2)nn1 as the compound, how does the viability, T/C read?
**A.** 93.9%

**Q.** With `CCCS(=O)(=O)Nc1ccc(F)c(C(=O)c2c[nH]c3ncc(-c4ccc(Cl)cc4)cc23)c1F` + Cc1cccc(N(C)C(=O)C2C(O)CCN2c2nc(C)cc(C(F)(F)F)c2C#N)c1 as the compound, how does the viability, T/C read?
**A.** 85.7%

**Q.** With `CCc1cc2c(N3CCc4c(cc(Cn5ccnc5)cc4-c4cn(C)nc4C(F)(F)F)C3=O)ccnc2c(OC)n1` + Cc1cccc(N(C)C(=O)C2C(O)CCN2c2nc(C)cc(C(F)(F)F)c2C#N)c1 as the compound, how does the viability, T/C read?
**A.** 83.9%

Same assay, conditions: 997537-175-T-J1-PDC complex spheroid viability, combination with POLQ inhibitors; second compound 3.16 µM; first compound 0.1 µM; active compounds read low

**Q.** For `Nc1ccn(C2OC(CO)C(O)C2(F)F)c(=O)n1` (stereo unspecified) + Cc1cccc(N(C)C(=O)C2C(O)CCN2c2nc(C)cc(C(F)(F)F)c2C#N)c1, which viability, T/C is on record?
**A.** 103%

**Q.** With `CC1COCCN1c1cc(-c2ccnn2C)c2ccnc(-c3ccn[nH]3)c2n1` (stereo unspecified) + COC1C(OC(N)=O)C(O)C(Oc2ccc3c(O)c(NC(=O)c4ccc(O)c(CC=C(C)C)c4)c(=O)oc3c2C)OC1(C)C as the compound, how does the viability, T/C read?
**A.** 88.9%
